Experimental data as given in patent US20230295197A1, “STAT5 and STAT6 Degraders and Uses Thereof” (REGENTS OF THE UNIVERSITY OF MICHICAN, priority 2022, published 2023).
Where two headings read alike, the source gives them in different places.

Key:
STAT5 = test: Immunoblotting (Western blot) analysis of STAT5 degradation efficiency of degraders in treated cells; format: cell-based
How it was run: (§1)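 ~1e6 cells/pt; cpd at indicated conc and duration; RIPA + protease/phosphatase inhibitors; BCA; 20-40 μg/lane Tris-glycine SDS-PAGE; PVDF; primary Ab 1:1000 o/n 4 °C; IRDye secondaries 1 h rt; infrared scan and densitometry; GAPDH loading ctrl.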

STAT6 = target: T1, STAT6 (Homo sapiens, UniProt P42226); test: Immunoblotting (Western blot) analysis of STAT6 degradation efficiency of degraders in treated cells; format: cell-based
T1 construct: endogenous in cells; host or cells: MOLM-16, KU-812, SKNO1, MB231, L1236
T1 sequence (P42226 1-847): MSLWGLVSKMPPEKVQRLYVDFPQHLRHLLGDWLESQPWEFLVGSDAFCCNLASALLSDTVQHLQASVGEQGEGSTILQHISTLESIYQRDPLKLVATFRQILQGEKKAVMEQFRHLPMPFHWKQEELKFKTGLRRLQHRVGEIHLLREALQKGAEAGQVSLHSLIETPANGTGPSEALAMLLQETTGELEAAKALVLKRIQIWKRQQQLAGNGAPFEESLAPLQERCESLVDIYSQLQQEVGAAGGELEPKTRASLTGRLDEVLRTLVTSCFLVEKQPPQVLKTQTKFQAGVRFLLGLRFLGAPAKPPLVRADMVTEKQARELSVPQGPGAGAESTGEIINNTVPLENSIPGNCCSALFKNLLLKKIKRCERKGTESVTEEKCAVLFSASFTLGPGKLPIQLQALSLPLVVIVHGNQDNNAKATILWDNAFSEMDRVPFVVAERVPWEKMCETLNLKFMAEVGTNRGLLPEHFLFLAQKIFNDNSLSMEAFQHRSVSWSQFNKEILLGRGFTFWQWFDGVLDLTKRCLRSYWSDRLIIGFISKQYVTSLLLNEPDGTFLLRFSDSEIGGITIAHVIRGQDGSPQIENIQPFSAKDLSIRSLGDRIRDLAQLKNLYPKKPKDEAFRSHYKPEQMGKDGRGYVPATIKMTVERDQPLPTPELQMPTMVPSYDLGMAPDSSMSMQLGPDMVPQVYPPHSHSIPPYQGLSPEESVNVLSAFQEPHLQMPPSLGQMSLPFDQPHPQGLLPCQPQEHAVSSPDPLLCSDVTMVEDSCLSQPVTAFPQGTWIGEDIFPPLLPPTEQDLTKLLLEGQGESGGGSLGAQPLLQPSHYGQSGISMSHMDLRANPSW
How it was run: as §1

[1] = MOLM-16 cells, numeric bound, read-out: DC50 S5 MOLM-16
[2] = SKNO1 cells, read-out: DC50 S5 SKNO1
[3] = MOLM-16 cells, numeric bound, read-out: DC50 S6 MOLM-16
[4] = KU-812 cells, read-out: DC50 S5 KU-812
[5] = MOLM-16 cells, class symbols, read-out: DC50 S5 MOLM-16
[6] = L1236 cells, read-out: DC50 S6 L1236
[7] = MB231 cells, read-out: DC50 S6 MB231
[8] = MOLM-16 cells, class symbols, read-out: DC50 S6 MOLM-16

With CC(C)(C)[C@H](NC(=O)c1cc2cc(C(F)(F)P(=O)(O)O)ccc2s1)C(=O)N1CCC[C@H]1C(=O)N(CCC(=O)NCCCC#Cc1cccc2c1CN(C1CCC(=O)NC1=O)C2=O)c1ccc(S(C)(=O)=O)cc1 (stereo partly drawn) [Compound 654, ((2-(((2S)-1-((2S)-2-((3-((5-(2-(2,6-dioxopiperidin-3-yl)-1-oxoisoindolin-4-yl)pent-4-yn-1-yl)amino)-3-oxopropyl)(4-(methylsulfonyl)phenyl)carbamoyl)pyrrolidin-1-yl)-3,3-dimethyl-1-oxobutan-2-yl)carbamoyl)benzo[b]thiophen-5-yl)difluoromethyl)phosphonic acid] the DC50 (STAT5; [1]) was > 300 nM, the DC50 (STAT5; [2]) was > 10000 nM and the DC50 (STAT6; [3]) was > 300 nM.
With CC(C)(C)[C@H](NC(=O)c1cc2cc(C(F)(F)P(=O)(O)O)ccc2s1)C(=O)N1CCC[C@H]1C(=O)N(CCC(=O)N1CC(CC#Cc2cccc3c2CN(C2CCC(=O)NC2=O)C3=O)C1)c1ccc(Br)cc1 (stereo partly drawn) [Compound 667, ((2-(((2S)-1-((2S)-2-((4-bromophenyl)(3-(3-(3-(2-(2,6-dioxopiperidin-3-yl)-1-oxoisoindolin-4-yl)prop-2-yn-1-yl)azetidin-1-yl)-3-oxopropyl)carbamoyl)pyrrolidin-1-yl)-3,3-dimethyl-1-oxobutan-2-yl)carbamoyl)benzo[b]thiophen-5-yl)difluoromethyl)phosphonic acid] the DC50 (STAT5; [4]) was > 10000 nM, the DC50 (STAT5; [1]) was > 300 nM and the DC50 (STAT5; [2]) was > 10000 nM. For the same molecule, the DC50 (STAT6; [3]) was > 300 nM.
For CC(C)(C)[C@H](NC(=O)c1cc2cc(C(F)(F)P(=O)(O)O)ccc2s1)C(=O)N1CCC[C@H]1C(=O)N(CCC(=O)NCCCC#Cc1cccc2c1CN(C1CCC(=O)NC1=O)C2=O)c1ccc(-c2nccs2)cc1 (stereo partly drawn) [Compound 655, ((2-(((2S)-1-((2S)-2-((3-((5-(2-(2,6-dioxopiperidin-3-yl)-1-oxoisoindolin-4-yl)pent-4-yn-1-yl)amino)-3-oxopropyl)(4-(thiazol-2-yl)phenyl)carbamoyl)pyrrolidin-1-yl)-3,3-dimethyl-1-oxobutan-2-yl)carbamoyl)benzo[b]thiophen-5-yl)difluoromethyl)phosphonic acid], the DC50 (STAT5; [4]) was 100 to 1000 nM, the DC50 (STAT5; [5]) was < 100 nM and the DC50 (STAT5; [2]) was 100 to 1000 nM. For the same molecule, the DC50 (STAT6; [3]) was > 300 nM.
In the case of CN(CCCC#Cc1cccc2c1CN(C1CCC(=O)NC1=O)C2=O)C(=O)CCN(C(=O)[C@@H]1CCCN1C(=O)[C@@H](NC(=O)c1cc2cc(C(F)(F)P(=O)(O)OCOC(=O)C(C)(C)C)ccc2s1)C(C)(C)C)c1ccc2cc(F)ccc2c1 (stereo partly drawn) [Compound 675, ((((2-(((2S)-1-((2S)-2-((3-((5-(2-(2,6-dioxopiperidin-3-yl)-1-oxoisoindolin-4-yl)pent-4-yn-1-yl)(methyl)amino)-3-oxopropyl)(6-fluoronaphthalen-2-yl)carbamoyl)pyrrolidin-1-yl)-3,3-dimethyl-1-oxobutan-2-yl)carbamoyl)benzo[b]thiophen-5-yl)difluoromethyl)(hydroxy)phosphoryl)oxy)methyl pivalate], the DC50 (STAT5; [5]) is reported as 100 to 1000 nM and the DC50 (STAT6; [3]) is reported as > 300 nM.
With CN(C(=O)[C@@H]1C[C@@H](OCC(=O)NCCCCCCCCCC#Cc2cccc3c2CN(C2CCC(=O)NC2=O)C3=O)CN1C(=O)[C@@H](NC(=O)c1cc2cc(C(F)(F)P(=O)(O)O)ccc2s1)C(C)(C)C)c1ccc(Br)cc1 (stereo partly drawn) [Compound 415, ((2-(((2S)-1-((2S,4R)-2-((4-bromophenyl)(methyl)carbamoyl)-4-(2-((11-(2-(2,6-dioxopiperidin-3-yl)-1-oxoisoindolin-4-yl)undec-10-yn-1-yl)amino)-2-oxoethoxy)pyrrolidin-1-yl)-3,3-dimethyl-1-oxobutan-2-yl)carbamoyl)benzo[b]thiophen-5-yl)difluoromethyl)phosphonic acid] the DC50 (STAT5; [2]) was > 10000 nM, the DC50 (STAT6; [6]) was > 10000 nM and the DC50 (STAT6; [7]) was > 10000 nM.
CN(C(=O)[C@@H]1C[C@@H](OCC(=O)NCCCCCCCCC#Cc2cccc3c2CN(C2CCC(=O)NC2=O)C3=O)CN1C(=O)[C@@H](NC(=O)c1cc2cc(C(F)(F)P(=O)(O)O)ccc2s1)C(C)(C)C)c1ccc(Br)cc1 (stereo partly drawn) [Compound 414, ((2-(((2S)-1-((2S,4R)-2-((4-bromophenyl)(methyl)carbamoyl)-4-(2-((10-(2-(2,6-dioxopiperidin-3-yl)-1-oxoisoindolin-4-yl)dec-9-yn-1-yl)amino)-2-oxoethoxy)pyrrolidin-1-yl)-3,3-dimethyl-1-oxobutan-2-yl)carbamoyl)benzo[b]thiophen-5-yl)difluoromethyl)phosphonic acid] was tested, and the DC50 (STAT5; [2]) was > 10000 nM, the DC50 (STAT6; [6]) was > 10000 nM and the DC50 (STAT6; [7]) was > 10000 nM.
With CN(CCCC#Cc1cccc2c1CN(C1CCC(=O)NC1=O)C2=O)C(=O)CCN(C(=O)[C@@H]1CCCN1C(=O)[C@@H](NC(=O)c1cc2cc(C(F)(F)P(=O)(O)OCOC(=O)C(C)(C)C)ccc2s1)C(C)(C)C)c1ccc2sccc2c1 (stereo partly drawn) [Compound 671, ((((2-(((2S)-1-((2S)-2-(benzo[b]thiophen-5-yl(3-((5-(2-(2,6-dioxopiperidin-3-yl)-1-oxoisoindolin-4-yl)pent-4-yn-1-yl)(methyl)amino)-3-oxopropyl)carbamoyl)pyrrolidin-1-yl)-3,3-dimethyl-1-oxobutan-2-yl)carbamoyl)benzo[b]thiophen-5-yl)difluoromethyl)(hydroxy)phosphoryl)oxy)methyl pivalate] the DC50 (STAT5; [5]) was < 100 nM and the DC50 (STAT6; [3]) was > 300 nM.
CC(C)(C)[C@H](NC(=O)c1cc2cc(C(F)(F)P(=O)(O)O)ccc2s1)C(=O)N1CCC[C@H]1C(=O)N(CCC(=O)NCCCCCC#Cc1cccc2c1CN(C1CCC(=O)NC1=O)C2=O)c1ccc(Br)cc1 (stereo partly drawn) [Compound 405, ((2-(((2S)-1-((2S)-2-((4-bromophenyl)(3-((7-(2-(2,6-dioxopiperidin-3-yl)-1-oxoisoindolin-4-yl)hept-6-yn-1-yl)amino)-3-oxopropyl)carbamoyl)pyrrolidin-1-yl)-3,3-dimethyl-1-oxobutan-2-yl)carbamoyl)benzo[b]thiophen-5-yl)difluoromethyl)phosphonic acid] gave a DC50 (STAT5; [4]) of 100 to 1000 nM, a DC50 (STAT5; [5]) of 100 to 1000 nM and a DC50 (STAT5; [2]) of 100 to 1000 nM. The DC50 (STAT6; [7]) was > 10000 nM and the DC50 (STAT6; [8]) was > 10000 nM.
For CC(C)(C)C(=O)OCOP(=O)(O)C(F)(F)c1ccc2sc(C(=O)N[C@H](C(=O)N3C[C@@H](OCCCCCC#Cc4cccc5c4CN(C4CCC(=O)NC4=O)C5=O)C[C@H]3C(=O)N3CCO[C@H](c4ccccc4)C3)C(C)(C)C)cc2c1 (stereo partly drawn) [Compound 652, ((((2-(((2S)-1-((2S,4S)-4-((7-(2-(2,6-dioxopiperidin-3-yl)-1-oxoisoindolin-4-yl)hept-6-yn-1-yl)oxy)-2-((R)-2-phenylmorpholine-4-carbonyl)pyrrolidin-1-yl)-3,3-dimethyl-1-oxobutan-2-yl)carbamoyl)benzo[b]thiophen-5-yl)difluoromethyl)(hydroxy)phosphoryl)oxy)methyl pivalate], the DC50 (STAT5; [5]) was > 10000 nM and the DC50 (STAT6; [8]) was < 100 nM.
For CC(C)(C)[C@H](NC(=O)c1cc2cc(C(F)(F)P(=O)(O)O)ccc2s1)C(=O)N1CCC[C@H]1C(=O)N1C[C@@H](Oc2ccc3ccccc3c2)C[C@H]1C(=O)NCCCC#Cc1cccc2c1CN(C1CCC(=O)NC1=O)C2=O (stereo partly drawn) [Compound 659, ((2-(((2S)-1-((2S)-2-((2S,4S)-2-((5-(2-(2,6-dioxopiperidin-3-yl)-1-oxoisoindolin-4-yl)pent-4-yn-1-yl)carbamoyl)-4-(naphthalen-2-yloxy)pyrrolidine-1-carbonyl)pyrrolidin-1-yl)-3,3-dimethyl-1-oxobutan-2-yl)carbamoyl)benzo[b]thiophen-5-yl)difluoromethyl)phosphonic acid], the DC50 (STAT5; [1]) was > 300 nM and the DC50 (STAT6; [3]) was > 300 nM.
